Laboratory results from US20130203591A1, “PESTICIDAL MIXTURES INCLUDING ISOXAZOLINE DERIVATIVES” (SYNGENTA CROP PROTECTION LLC, priority 2010, published 2013).

What was measured:
Assay type in all cases: cell-based
Fusarium culmorum = Fusarium culmorum (root rot) growth inhibition in nutrient broth, microtiter plate; conditions: for AVERAGE DEAD IN % Epoxiconazole: Epoxiconazole alone; for AVERAGE DEAD IN % Epoxiconazole / AVERAGE DEAD IN % COMPOUND I-A2: 48 hrs, 24° C.; for AVERAGE DEAD IN % COMPOUND I-A2: COMPOUND I-A2 alone
Protocol: Fusarium culmorum (Root Rot):
(§1) Conidia of the fungus from cryogenic storage were directly mixed into nutrient broth (potato dextrose broth). After placing a (DMSO) solution of the test compounds into a microtiter plate (96-well format) the nutrient broth containing the fungal spores was added. The test plates were incubated at 24° C. and the inhibition of growth was determined photometrically after 48 hrs.

[1] = tested on: Mycosphaerella arachidis (syn. Cercospora arachidicola); assay: Mycosphaerella arachidis (brown leaf spot of groundnut) growth inhibition in nutrient broth, microtiter plate
Protocol: Mycosphaerella arachidis (syn. Cercospora arachidicola), Brown Leaf Spot of Groundnut (Peanut):
as §1, with “approximately 5-6 days at 620 nm.” for “48 hrs.”

Botrvtis cinerea = assay: Botrytis cinerea (gray mould) growth inhibition in nutrient broth, microtiter plate
Protocol: Botrvtis cinerea (Gray Mould):
as §1, with “72 hours.” for “48 hrs.”

Septoria tritici = Septoria tritici (leaf blotch) growth inhibition in nutrient broth, microtiter plate
Protocol: Septoria tritici (Leaf Blotch):
as §1, with “72 hours.” for “48 hrs.”

[2] = tested on: Glomerella lagenarium (syn. Colletotrichum lagenarium); assay: Glomerella lagenarium (anthracnose of cucurbits) growth inhibition in nutrient broth, microtiter plate
Protocol: Glomerella lagenarium (syn. Colletotrichum lagenarium), Anthracnose of Cucurbits:
as §1, with “72 hours at 620 nm.” for “48 hrs.”

[3] = Epoxiconazole alone 0.0078125 ppm AI
[4] = Epoxiconazole alone 0.015625 ppm AI
[5] = Epoxiconazole alone 0.03125 ppm AI
[6] = Epoxiconazole alone 0.25 ppm AI
[7] = Azoxystrobin alone 0.015625 ppm AI
[8] = Azoxystrobin alone 0.03125 ppm AI
[9] = Azoxystrobin alone 0.0625 ppm AI
[10] = Fluxapyroxad alone 0.125 ppm AI
[11] = Pyraclostrobin alone 0.5 ppm AI
[12] = Pyraclostrobin alone 0.00390625 ppm AI

Fc1ccc([C@]2(Cn3cncn3)O[C@H]2c2ccccc2Cl)cc1 (racemic) [Epoxiconazole]
0%: AVERAGE DEAD IN % [1, 3] | AVERAGE DEAD IN % [1, 4] | AVERAGE DEAD IN % (Septoria tritici; [3]) | AVERAGE DEAD IN % (Septoria tritici; [4])
20%: AVERAGE DEAD IN % Epoxiconazole (Fusarium culmorum; 0.125 PPM AI) | AVERAGE DEAD IN % Epoxiconazole (Fusarium culmorum; 0.25 PPM AI) | AVERAGE DEAD IN % Epoxiconazole (Fusarium culmorum; 0.5 PPM AI) | AVERAGE DEAD IN % Epoxiconazole (Fusarium culmorum; 1 PPM AI) | AVERAGE DEAD IN % Epoxiconazole (Fusarium culmorum; 2 PPM AI) | AVERAGE DEAD IN % [1, 5] | AVERAGE DEAD IN % (Botrvtis cinerea; [6]) | AVERAGE DEAD IN % (Septoria tritici; [5]) | AVERAGE DEAD IN % [2, 6]
100%: AVERAGE DEAD IN % (Botrvtis cinerea; Epoxiconazole alone 1 ppm AI) | AVERAGE DEAD IN % (Botrvtis cinerea; Epoxiconazole alone 2 ppm AI)
90%: AVERAGE DEAD IN % (Botrvtis cinerea; Epoxiconazole alone 0.5 ppm AI) | AVERAGE DEAD IN % (Septoria tritici; [6]) | AVERAGE DEAD IN % (Septoria tritici; Epoxiconazole alone 0.5 ppm AI) | AVERAGE DEAD IN % (Septoria tritici; Epoxiconazole alone 1 ppm AI) | AVERAGE DEAD IN % (Septoria tritici; Epoxiconazole alone 2 ppm AI) | AVERAGE DEAD IN % ([2]; Epoxiconazole alone 2 ppm AI)
70%: AVERAGE DEAD IN % (Septoria tritici; Epoxiconazole alone 0.125 ppm AI) | AVERAGE DEAD IN % ([2]; Epoxiconazole alone 1 ppm AI)
50%: AVERAGE DEAD IN % (Septoria tritici; Epoxiconazole alone 0.0625 ppm AI) | AVERAGE DEAD IN % ([2]; Epoxiconazole alone 0.5 ppm AI)

CO/C=C(/C(=O)OC)c1ccccc1Oc1cc(Oc2ccccc2C#N)ncn1 [Azoxystrobin]
90%: AVERAGE DEAD IN % [1, 9] | AVERAGE DEAD IN % ([2]; Azoxystrobin alone 0.125 ppm AI)
0%: AVERAGE DEAD IN % ([1]; Azoxystrobin alone 0.0078125 ppm AI)
70%: AVERAGE DEAD IN % [1, 8] | AVERAGE DEAD IN % (Septoria tritici; [9]) | AVERAGE DEAD IN % [2, 9]
50%: AVERAGE DEAD IN % [2, 8]
20%: AVERAGE DEAD IN % [1, 7] | AVERAGE DEAD IN % (Septoria tritici; [8]) | AVERAGE DEAD IN % [2, 7]

O=C(Nc1ccccc1-c1ccc(Cl)cc1)c1cccnc1Cl [Boscalid]
100%: AVERAGE DEAD IN % ([1]; Boscalid alone 0.25 ppm AI) | AVERAGE DEAD IN % ([1]; Boscalid alone 0.5 ppm AI) | AVERAGE DEAD IN % (Septoria tritici; Boscalid alone 2 ppm AI)
20%: AVERAGE DEAD IN % (Botrvtis cinerea; Boscalid alone 0.0625 ppm AI) | AVERAGE DEAD IN % (Botrvtis cinerea; Boscalid alone 0.125 ppm AI) | AVERAGE DEAD IN % (Botrvtis cinerea; Boscalid alone 0.25 ppm AI) | AVERAGE DEAD IN % (Septoria tritici; Boscalid alone 0.25 ppm AI)
50%: AVERAGE DEAD IN % (Botrvtis cinerea; Boscalid alone 0.5 ppm AI) | AVERAGE DEAD IN % (Septoria tritici; Boscalid alone 0.5 ppm AI)
70%: AVERAGE DEAD IN % ([1]; Boscalid alone 0.125 ppm AI) | AVERAGE DEAD IN % (Botrvtis cinerea; Boscalid alone 1 ppm AI)
90%: AVERAGE DEAD IN % (Botrvtis cinerea; Boscalid alone 2 ppm AI) | AVERAGE DEAD IN % (Septoria tritici; Boscalid alone 1 ppm AI)

Cn1cc(C(=O)Nc2ccccc2-c2cc(F)c(F)c(F)c2)c(C(F)F)n1 [Fluxapyroxad]
50%: AVERAGE DEAD IN % ([1]; Fluxapyroxad alone 0.0625 ppm AI)
90%: AVERAGE DEAD IN % [1, 10]
70%: AVERAGE DEAD IN % (Septoria tritici; Fluxapyroxad alone 0.25 ppm AI)
20%: AVERAGE DEAD IN % ([1]; Fluxapyroxad alone 0.03125 ppm AI) | AVERAGE DEAD IN % (Septoria tritici; [10])
0%: AVERAGE DEAD IN % ([1]; Fluxapyroxad alone 0.015625 ppm AI)
100%: AVERAGE DEAD IN % ([1]; Fluxapyroxad alone 0.25 ppm AI) | AVERAGE DEAD IN % (Septoria tritici; Fluxapyroxad alone 0.5 ppm AI) | AVERAGE DEAD IN % (Septoria tritici; Fluxapyroxad alone 1 ppm AI)

Cc1cc(C2=NOC(c3cc(Cl)cc(Cl)c3)(C(F)(F)F)C2)ccc1C(=O)NCC(=O)NCC(F)(F)F (stereo not drawn) [I-A2]
0%: AVERAGE DEAD IN % COMPOUND I-A2 (Fusarium culmorum; 0.9375 PPM AI) | AVERAGE DEAD IN % COMPOUND I-A2 (Fusarium culmorum; 1.875 PPM AI) | AVERAGE DEAD IN % COMPOUND I-A2 (Fusarium culmorum; 3.75 PPM AI) | AVERAGE DEAD IN % COMPOUND I-A2 (Fusarium culmorum; 7.5 PPM AI) | AVERAGE DEAD IN % COMPOUND I-A2 (Fusarium culmorum; 15 PPM AI) | AVERAGE DEAD IN % COMPOUND I-A2 (Fusarium culmorum; 30 PPM AI) | AVERAGE DEAD IN % COMPOUND I-A2 (Fusarium culmorum; 60 PPM AI) | AVERAGE DEAD IN % (Fusarium culmorum; I-A2 alone 3.75 ppm AI) | AVERAGE DEAD IN % (Fusarium culmorum; I-A2 alone 7.5 ppm AI) | AVERAGE DEAD IN % (Fusarium culmorum; I-A2 alone 15 ppm AI) | AVERAGE DEAD IN % (Fusarium culmorum; I-A2 alone 30 ppm AI) | AVERAGE DEAD IN % (Fusarium culmorum; I-A2 alone 60 ppm AI) | AVERAGE DEAD IN % ([1]; I-A2 alone 0.1171875 ppm AI) | AVERAGE DEAD IN % ([1]; I-A2 alone 0.234375 ppm AI) | AVERAGE DEAD IN % ([1]; I-A2 alone 0.46875 ppm AI) | AVERAGE DEAD IN % ([1]; I-A2 alone 0.9375 ppm AI) | AVERAGE DEAD IN % ([1]; I-A2 alone 1.875 ppm AI) | AVERAGE DEAD IN % ([1]; I-A2 alone 3.75 ppm AI) | AVERAGE DEAD IN % ([1]; I-A2 alone 7.5 ppm AI) | AVERAGE DEAD IN % ([1]; I-A2 alone 15 ppm AI) | AVERAGE DEAD IN % (Botrvtis cinerea; I-A2 alone 0.46875 ppm AI) | AVERAGE DEAD IN % (Botrvtis cinerea; I-A2 alone 0.9375 ppm AI) | AVERAGE DEAD IN % (Botrvtis cinerea; I-A2 alone 1.875 ppm AI) | AVERAGE DEAD IN % (Botrvtis cinerea; I-A2 alone 3.75 ppm AI) | AVERAGE DEAD IN % (Botrvtis cinerea; I-A2 alone 7.5 ppm AI) | AVERAGE DEAD IN % (Botrvtis cinerea; I-A2 alone 15 ppm AI) | AVERAGE DEAD IN % (Botrvtis cinerea; I-A2 alone 30 ppm AI) | AVERAGE DEAD IN % (Botrvtis cinerea; I-A2 alone 60 ppm AI) | AVERAGE DEAD IN % (Septoria tritici; I-A2 alone 0.1171875 ppm AI) | AVERAGE DEAD IN % (Septoria tritici; I-A2 alone 0.234375 ppm AI) | AVERAGE DEAD IN % (Septoria tritici; I-A2 alone 0.46875 ppm AI) | AVERAGE DEAD IN % (Septoria tritici; I-A2 alone 0.9375 ppm AI) | AVERAGE DEAD IN % (Septoria tritici; I-A2 alone 1.875 ppm AI) | AVERAGE DEAD IN % (Septoria tritici; I-A2 alone 3.75 ppm AI) | AVERAGE DEAD IN % (Septoria tritici; I-A2 alone 7.5 ppm AI) | AVERAGE DEAD IN % (Septoria tritici; I-A2 alone 15 ppm AI) | AVERAGE DEAD IN % (Septoria tritici; I-A2 alone 30 ppm AI) | AVERAGE DEAD IN % (Septoria tritici; I-A2 alone 60 ppm AI) | AVERAGE DEAD IN % ([2]; I-A2 alone 0.1171875 ppm AI) | AVERAGE DEAD IN % ([2]; I-A2 alone 0.234375 ppm AI) | AVERAGE DEAD IN % ([2]; I-A2 alone 0.46875 ppm AI) | AVERAGE DEAD IN % ([2]; I-A2 alone 0.9375 ppm AI) | AVERAGE DEAD IN % ([2]; I-A2 alone 1.875 ppm AI) | AVERAGE DEAD IN % ([2]; I-A2 alone 3.75 ppm AI) | AVERAGE DEAD IN % ([2]; I-A2 alone 7.5 ppm AI) | AVERAGE DEAD IN % ([2]; I-A2 alone 15 ppm AI) | AVERAGE DEAD IN % ([2]; I-A2 alone 30 ppm AI) | AVERAGE DEAD IN % ([2]; I-A2 alone 60 ppm AI)

COC(=O)N(OC)c1ccccc1COc1ccn(-c2ccc(Cl)cc2)n1 [Pyraclostrobin]
70%: AVERAGE DEAD IN % (Botrvtis cinerea; Pyraclostrobin alone 2 ppm AI) | AVERAGE DEAD IN % [2, 12]
20%: AVERAGE DEAD IN % (Fusarium culmorum; [11]) | AVERAGE DEAD IN % (Fusarium culmorum; Pyraclostrobin alone 1 ppm AI) | AVERAGE DEAD IN % (Fusarium culmorum; Pyraclostrobin alone 2 ppm AI) | AVERAGE DEAD IN % (Botrvtis cinerea; Pyraclostrobin alone 0.125 ppm AI) | AVERAGE DEAD IN % (Botrvtis cinerea; Pyraclostrobin alone 0.25 ppm AI) | AVERAGE DEAD IN % (Botrvtis cinerea; [11])
50%: AVERAGE DEAD IN % (Botrvtis cinerea; Pyraclostrobin alone 1 ppm AI)
90%: AVERAGE DEAD IN % [1, 12] | AVERAGE DEAD IN % (Septoria tritici; [12]) | AVERAGE DEAD IN % ([2]; Pyraclostrobin alone 0.0078125 ppm AI)
